Reference: DBAASP
Converted amounts (≈) assume the structure as drawn.

Assays:
Test in all cases: ≥ marks a high value that may be exact or a test limit, other limits are often not marked, values filed in µg/mL are converted to µM
Escherichia coli K-12 = test system: Escherichia coli K-12
[1] = test system: Staphylococcus aureus ATCC 25923
[2] = test system: Escherichia coli ATCC 25726
Acinetobacter baumannii = test system: Acinetobacter baumannii
[3] = test system: Candida albicans ATCC 90028
[4] = test system: Escherichia coli ATCC 25922
[5] = test system: Candida albicans ATCC 2002
[6] = test system: Staphylococcus aureus ATCC 2592
[7] = test system: Pseudomonas aeruginosa CMCCB 10104
Escherichia coli BW25113 = test system: Escherichia coli BW25113

Row | Compound | MIC [1] [µM] | MIC [2] [µM] | MIC (Escherichia coli BW25113) [µM] | also measured
1 | CC[C@H](C)[C@H](NC(=O)[C@H](CCCN=C(N)N)NC(=O)[C@H](CCC(N)=O)NC(=O)[C@@H](NC(=O)[C@@H](NC(=O)[C@H](CCC(N)=O)NC(=O)[C@H](C)N)[C@@H](C)CC)C(C)C)C(=O)N[C@@H](CCCCN)C(=O)N[C@@H](CC(=O)O)C(=O)N[C@@H](Cc1ccccc1)C(=O)N[C@@H](CC(C)C)C(=O)N[C@@H](CCCN=C(N)N)C(N)=O [AQIVQRIKDFLR] |  |  |  | MIC (Escherichia coli K-12): ≥ 240 µM
2 | CC[C@H](C)[C@H](NC(=O)[C@H](CCSC)NC(=O)[C@H](C)NC(=O)[C@H](CC(N)=O)NC(=O)[C@H](CCCCN)NC(=O)[C@H](Cc1ccccc1)NC(=O)[C@H](CO)NC(=O)[C@H](CC(=O)O)NC(=O)[C@H](CC(C)C)NC(=O)[C@H](Cc1ccccc1)NC(=O)CN)C(=O)NCC(=O)N[C@H](C(=O)N[C@@H](C)C(=O)N[C@@H](CCCCN)C(=O)N[C@@H](CO)C(=O)N[C@H](C(=O)NCC(=O)N[C@@H](CCCCN)C(=O)N[C@H](C(=O)N[C@@H](C)C(=O)N[C@@H](CC(C)C)C(=O)N[C@@H](CO)C(=O)N[C@H](C(=O)N[C@@H](CC(C)C)C(=O)N[C@@H](C)C(=O)N[C@H]1CSSC[C@@H](C(=O)O)NC(=O)[C@H](CO)NC(=O)[C@H](CCCCN)NC(=O)[C@H](CC(=O)O)NC(=O)[C@H]([C@@H](C)CC)NC(=O)[C@H](CCCCN)NC1=O)[C@@H](C)O)[C@@H](C)O)C(C)C)C(C)C [GFLDSFKNAMIGVAKSVGKTALSTLACKIDKSC] | 36.7 (≈ 125 µg/mL) | 18.4 (≈ 62.5 µg/mL) |  | 
3 | CC[C@H](C)[C@H](NC(=O)CN)C(=O)N[C@@H](Cc1c[nH]c2ccccc12)C(=O)N[C@@H](CC(=O)O)C(=O)N[C@H](C(=O)N[C@H](C(=O)N[C@@H](CCCCN)C(=O)N[C@@H](CO)C(=O)N[C@@H](CCSC)C(=O)NCC(=O)N[C@@H](CCCCN)C(=O)N[C@H](C(=O)N[C@@H](Cc1ccccc1)C(=O)N[C@@H](C)C(=O)NCC(=O)N[C@@H](CC(C)C)C(=O)N[C@H](C(=O)N[C@@H](CC(C)C)C(=O)N[C@@H](CCC(N)=O)C(=O)N[C@@H](CC(N)=O)C(=O)N[C@@H](CC(C)C)C(N)=O)[C@@H](C)CC)C(C)C)[C@@H](C)CC)[C@@H](C)O [GIWDTIKSMGKVFAGLILQNL] | 25 (≈ 57.6 µg/mL) | ≥ 100 |  | MIC (Acinetobacter baumannii): 25 µM (≈ 57.6 µg/mL); MIC [3]: 12.5 µM (≈ 28.8 µg/mL)
4 | CC[C@H](C)[C@H](NC(=O)[C@H](CCCCN)NC(=O)[C@H](CO)NC(=O)[C@H](C)NC(=O)[C@H](Cc1c[nH]c2ccccc12)NC(=O)CN)C(=O)NCC(=O)N[C@@H](CCC(N)=O)C(=O)N[C@H](C(=O)N[C@@H](CC(C)C)C(=O)NCC(=O)N[C@@H](CCCCN)C(=O)N[C@@H](CCSC)C(=O)N[C@@H](C)C(=O)N[C@@H](CCCCN)C(=O)N[C@H](C(=O)NCC(=O)N[C@@H](CC(C)C)C(=O)N[C@@H](CCC(N)=O)C(=O)N[C@@H](CCC(=O)O)C(=O)N[C@@H](CC(C)C)C(=O)N[C@H](C(=O)N[C@@H](CCC(N)=O)C(=O)N1CCC[C@H]1C(=O)N[C@@H](CCCCN)C(=O)O)[C@@H](C)CC)C(C)C)[C@@H](C)O [GWASKIGQTLGKMAKVGLQELIQPK] | 50 (≈ 134 µg/mL) | ≥ 50 |  | 
5 | CC[C@H](C)[C@H](N)C(=O)N[C@@H](CC(C)C)C(=O)NCC(=O)N1CCC[C@H]1C(=O)N[C@H](C(=O)N[C@H](C(=O)N[C@@H](CO)C(=O)N[C@@H](CCCCN)C(=O)N[C@H](C(=O)NCC(=O)NCC(=O)N[C@H](C(=O)N[C@@H](CC(C)C)C(=O)NCC(=O)NCC(=O)N[C@@H](CC(C)C)C(=O)N[C@@H](CC(C)C)C(=O)N[C@@H](CCCCN)C(=O)N[C@@H](CC(N)=O)C(=O)N[C@@H](CC(C)C)C(N)=O)C(C)C)[C@@H](C)CC)[C@@H](C)CC)C(C)C [ILGPVISKIGGVLGGLLKNL] |  |  |  | MIC [4]: 6.12 µM (≈ 12 µg/mL); MIC [5]: 3.06 µM (≈ 6 µg/mL); MIC [6]: 3.06 µM (≈ 6 µg/mL); MIC [7]: 6.12 µM (≈ 12 µg/mL)
6 | CC[C@H](C)[C@H](NC(=O)[C@@H]1CCCN1C(=O)[C@H](CCCN=C(N)N)NC(=O)[C@H](CCCN=C(N)N)NC(=O)[C@H](Cc1ccccc1)NC(=O)[C@@H](N)CCCN=C(N)N)C(=O)N[C@@H](CCCN=C(N)N)C(=O)N[C@@H](CCCN=C(N)N)C(=O)N1CCC[C@H]1C(=O)N1CCC[C@H]1C(=O)N[C@H](C(=O)N[C@@H](CCCN=C(N)N)C(=O)N1CCC[C@H]1C(=O)N1CCC[C@H]1C(=O)N[C@@H](Cc1ccccc1)C(=O)N[C@@H](Cc1ccc(O)cc1)C(=O)N1CCC[C@H]1C(=O)O)[C@@H](C)CC [RFRRPIRRPPIRPPFYP] |  |  | 4 (≈ 8.89 µg/mL) | 
7 | CC[C@H](C)[C@H](NC(=O)[C@@H]1CCCN1C(=O)[C@H](Cc1c[nH]c2ccccc12)NC(=O)[C@H](CCCN=C(N)N)NC(=O)[C@H](Cc1ccccc1)NC(=O)[C@@H](N)CCCN=C(N)N)C(=O)N[C@@H](CCCN=C(N)N)C(=O)N[C@@H](CCCN=C(N)N)C(=O)N[C@@H](CCCN=C(N)N)C(=O)N1CCC[C@H]1C(=O)N[C@H](C(=O)N[C@@H](CCCN=C(N)N)C(=O)N1CCC[C@H]1C(=O)N1CCC[C@H]1C(=O)N[C@@H](Cc1ccccc1)C(=O)N[C@@H](Cc1ccc(O)cc1)C(=O)N[C@@H](CCCN=C(N)N)C(=O)O)[C@@H](C)CC [RFRWPIRRRPIRPPFYR] |  |  | 8 (≈ 19 µg/mL) | 
8 | CC[C@H](C)[C@H](NC(=O)[C@@H]1CCCN1C(=O)[C@H](CCCN=C(N)N)NC(=O)[C@H](CCCN=C(N)N)NC(=O)[C@H](CCCN=C(N)N)NC(=O)[C@H](Cc1c[nH]c2ccccc12)NC(=O)[C@@H]1CCCN1C(=O)[C@H](CCCN=C(N)N)NC(=O)[C@H](CCCN=C(N)N)NC(=O)[C@H](Cc1c[nH]c2ccccc12)NC(=O)[C@@H](N)CCCN=C(N)N)C(=O)N[C@@H](CCCN=C(N)N)C(=O)N1CCC[C@H]1C(=O)N1CCC[C@H]1C(=O)N[C@@H](Cc1ccccc1)C(=O)N[C@@H](Cc1ccc(O)cc1)C(=O)N[C@@H](CCCN=C(N)N)C(=O)O [RWRRPWRRRPIRPPFYR] |  |  | 8 (≈ 19.6 µg/mL) | 
9 | CC[C@H](C)[C@H](NC(=O)[C@@H]1CCCN1C(=O)[C@H](Cc1c[nH]c2ccccc12)NC(=O)[C@H](CCCN=C(N)N)NC(=O)[C@H](Cc1c[nH]c2ccccc12)NC(=O)[C@@H](N)CCCN=C(N)N)C(=O)N[C@@H](CCCN=C(N)N)C(=O)N[C@@H](CCCN=C(N)N)C(=O)N[C@@H](CCCN=C(N)N)C(=O)N1CCC[C@H]1C(=O)N[C@H](C(=O)N[C@@H](CCCN=C(N)N)C(=O)N1CCC[C@H]1C(=O)N1CCC[C@H]1C(=O)N[C@@H](Cc1ccccc1)C(=O)N[C@@H](Cc1c[nH]c2ccccc12)C(=O)N[C@@H](CCCN=C(N)N)C(=O)O)[C@@H](C)CC [RWRWPIRRRPIRPPFWR] |  |  | 4 (≈ 9.73 µg/mL) | 
10 | CC[C@H](C)[C@H](NC(=O)[C@H](CC(C)C)NC(=O)[C@H](CC(C)C)NC(=O)[C@H](CC(=O)O)NC(=O)[C@H](CCCCN)NC(=O)[C@@H](NC(=O)[C@@H](NC(=O)CNC(=O)[C@H](CCSC)NC(=O)[C@@H](NC(=O)[C@@H](N)CO)C(C)C)[C@@H](C)O)C(C)C)C(=O)NCC(=O)N[C@@H](C)C(=O)NCC(=O)N[C@@H](CCCCN)C(=O)N[C@@H](CO)C(=O)N[C@@H](C)C(=O)N[C@@H](C)C(=O)N[C@@H](CCC(N)=O)C(=O)N[C@@H](CO)C(=O)N[C@H](C(=O)N[C@@H](CC(C)C)C(=O)N[C@@H](CCCCN)C(=O)N[C@@H](CO)C(=O)N[C@@H](CC(C)C)C(=O)N[C@@H](CO)C(=O)N[C@H]1CSSC[C@@H](C(=O)O)NC(=O)[C@H](CC(=O)O)NC(=O)[C@H](CC(N)=O)NC(=O)[C@H](CO)NC(=O)[C@H](CC(C)C)NC(=O)[C@H](CCCCN)NC1=O)C(C)C [SVMGTVKDLLIGAGKSAAQSVLKSLSCKLSNDC] | 0.993 (≈ 3.3 µg/mL) |  |  | MIC [4]: 1.99 µM (≈ 6.6 µg/mL); MIC [5]: 0.993 µM (≈ 3.3 µg/mL); MIC [7]: 1.99 µM (≈ 6.6 µg/mL)
